Measured values as given in patent US12655116B2, “Substituted isophthalic acid diamides” (Bayer Aktiengesellschaft, priority 2020, dated 2026).

Columns and labels:
[1] = system: AMARE; test: Post-emergence herbicidal action against AMARE; format: in vivo, Amaranthus retroflexus; conditions: 20 g/ha, visual assessment about 3 weeks after treatment, 100% = plants have died, 0% = like control plants; for pest or weed control at 20 g/ha: Amaranthus retroflexus, 504 h
In short: (§1)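 Visual % rating (0% = as untreated, 100% = dead) ~3 wk after spraying one-leaf-stage plants grown in sandy loam; WP/EC in water at 600–800 l/ha, 0.2% wetting agent.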

[2] = system: ALOMY; test: Post-emergence herbicidal action against ALOMY; format: in vivo, Alopecurus myosuroides; conditions: visual assessment about 3 weeks after treatment vs untreated controls
In short: as §1

[3] = system: VERPE; test: Post-emergence herbicidal action against VERPE; format: in vivo, Veronica persica; conditions: 20 g/ha; for pest or weed control at 20 g/ha: Veronica persica, 504 h
In short: as §1

[4] = system: LOLRI; test: Pre-emergence herbicidal action against LOLRI; format: in vivo, Lolium rigidum; conditions: 80 g/ha; for pest or weed control at 80 g/ha: Lolium rigidum, 504 h
In short: (§2)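 Sandy loam pots, seeds covered with soil, then surface-treated with WP or EC formulations at 600–800 l/ha water plus 0.2% wetting agent. Greenhouse, 3 weeks. Percent damage vs untreated controls.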

[5] = system: DIGSA; test: Pre-emergence herbicidal action against DIGSA; format: in vivo, Digitaria sanguinalis
In short: as §2

[6] = system: MATIN; test: Post-emergence herbicidal action against MATIN; format: in vivo, Matricaria inodora
In short: as §1

[7] = system: ABUTH; test: Post-emergence herbicidal action against ABUTH; format: in vivo, Abutilon theophrasti; conditions: visual assessment about 3 weeks after treatment vs untreated controls; for pest or weed control at 5 g/ha / pest or weed control at 20 g/ha: Abutilon theophrasti, 504 h
In short: as §1

[8] = system: MATIN; test: Pre-emergence herbicidal action against MATIN; format: in vivo, Matricaria inodora; conditions: for pest or weed control at 20 g/ha / pest or weed control at 80 g/ha: Tripleurospermum inodorum, 504 h
In short: as §2

[9] = system: ECHCG; test: Pre-emergence herbicidal action against ECHCG; format: in vivo, Echinochloa crus-galli
In short: as §2

[10] = system: SETVI; test: Pre-emergence herbicidal action against SETVI; format: in vivo, Setaria viridis
In short: as §2

[11] = system: VIOTR; test: Pre-emergence herbicidal action against VIOTR; format: in vivo, Viola tricolor
In short: as §2

[12] = system: ABUTH; test: Pre-emergence herbicidal action against ABUTH; format: in vivo, Abutilon theophrasti; conditions: for pest or weed control at 80 g/ha / pest or weed control at 20 g/ha: Abutilon theophrasti, 504 h; for pest or weed control at 20 g/ha: read-out: Pre-emergence action against ABUTH (herbicidal activity in percent)
In short: as §2

[13] = system: VIOTR; test: Post-emergence herbicidal action against VIOTR; format: in vivo, Viola tricolor; conditions: Viola tricolor, 504 h, 20 g/ha
In short: as §1

[14] = system: AMARE; test: Pre-emergence herbicidal action against AMARE; format: in vivo, Amaranthus retroflexus; conditions: for pest or weed control at 20 g/ha / pest or weed control at 80 g/ha: Amaranthus retroflexus, 504 h
In short: as §2

[15] = system: VERPE; test: Pre-emergence herbicidal action against VERPE; format: in vivo, Veronica persica
In short: as §2

[16] = system: PHBPU; test: Pre-emergence herbicidal action against PHBPU; format: in vivo, Pharbitis purpurea; conditions: for pest or weed control at 80 g/ha: Ipomoea purpurea, 504 h
In short: as §2

[17] = system: ECHCG; test: Post-emergence herbicidal action against ECHCG; format: in vivo, Echinochloa crus-galli
In short: as §1

[18] = system: ALOMY; test: Pre-emergence herbicidal action against ALOMY; format: in vivo, Alopecurus myosuroides; conditions: for pest or weed control at 80 g/ha / pest or weed control at 20 g/ha: Alopecurus myosuroides, 504 h
In short: as §2

[19] = system: POLCO; test: Pre-emergence herbicidal action against POLCO; format: in vivo, Polygonum convolvulus
In short: as §2

[20] = system: AVEFA; test: Pre-emergence herbicidal action against AVEFA; format: in vivo, Avena fatua
In short: as §2

[21] = system: PHBPU; test: Post-emergence herbicidal action against PHBPU; format: in vivo, Pharbitis purpurea
In short: as §1

[22] = system: SETVI; test: Post-emergence herbicidal action against SETVI; format: in vivo, Setaria viridis; conditions: Setaria viridis, 504 h
In short: as §1

[23] = Alopecurus myosuroides, 504 h, dosage 20 g/ha
[24] = Tripleurospermum inodorum, 504 h, dosage 20 g/ha
[25] = Echinochloa crus-galli, 504 h, 80 g/ha
[26] = Setaria viridis, 504 h, dosage 80 g/ha
[27] = Viola tricolor, 504 h, dosage 80 g/ha
[28] = 80 g/ha, scored visually after 3 weeks vs untreated controls (100% = plants have died, 0% = like control plants)
[29] = dosage 20 g/ha, scored visually after 3 weeks vs untreated controls, 100% = plants have died, 0% = like control plants
[30] = 20 g/ha, scored visually after 3 weeks vs untreated controls, 100% = plants have died, 0% = like control plants
[31] = 80 g/ha, scored visually after 3 weeks vs untreated controls, 100% = plants have died, 0% = like control plants
[32] = Veronica persica, 504 h, dosage 80 g/ha
[33] = Echinochloa crus-galli, 504 h, dosage 20 g/ha
[34] = 80 g/ha, pre-emergence, scored visually after 3 weeks vs untreated controls (100% = plants have died, 0% = like control plants)
[35] = pre-emergence, 20 g/ha, scored visually after 3 weeks, 100% = plants have died, 0% = like control plants
[36] = Fallopia convolvulus, 504 h, dosage 80 g/ha
[37] = 20 g/ha, scored visually after 3 weeks, 100% = plants have died, 0% = like control plants

CCCNC(=O)c1c(C(F)(F)F)ccc(C(=O)Nc2nnnn2C)c1C [Example 1-32]
pest or weed control at 20 g/ha [1]: 90% | pest or weed control at 5 g/ha ([2]; Alopecurus myosuroides, 504 h, dosage 5 g/ha): 80% | pest or weed control at 20 g/ha [2, 23]: 90% | pest or weed control at 20 g/ha [3]: 90% | pest or weed control at 80 g/ha [4]: 90% | pest or weed control at 20 g/ha ([5]; Digitaria sanguinalis, 504 h, dosage 20 g/ha): 100% | pest or weed control at 80 g/ha ([5]; Digitaria sanguinalis, 504 h, dosage 80 g/ha): 100% | pest or weed control at 5 g/ha ([6]; Tripleurospermum inodorum, 504 h, dosage 5 g/ha): 80% | pest or weed control at 20 g/ha [6, 24]: 90% | pest or weed control at 5 g/ha ([7]; dosage 5 g/ha): 90% | pest or weed control at 20 g/ha ([7]; dosage 20 g/ha): 90% | pest or weed control at 20 g/ha ([8]; dosage 20 g/ha): 100% | pest or weed control at 80 g/ha ([8]; dosage 80 g/ha): 100% | pest or weed control at 20 g/ha ([9]; Echinochloa crus-galli, 504 h, 20 g/ha): 80% | pest or weed control at 80 g/ha [9, 25]: 100% | pest or weed control at 80 g/ha [10, 26]: 100% | pest or weed control at 80 g/ha [11, 27]: 100% | pest or weed control at 80 g/ha [12, 28]: 100% | pest or weed control at 20 g/ha [12, 29]: 100% | pest or weed control at 20 g/ha [13]: 80% | pest or weed control at 20 g/ha [14, 30]: 100% | pest or weed control at 80 g/ha [14, 31]: 100% | pest or weed control at 20 g/ha ([15]; Veronica persica, 504 h, dosage 20 g/ha): 80% | pest or weed control at 80 g/ha [15, 32]: 100% | pest or weed control at 80 g/ha ([16]; dosage 80 g/ha): 80% | pest or weed control at 20 g/ha [17, 33]: 90% | pest or weed control at 80 g/ha [18, 34]: 100% | pest or weed control at 20 g/ha [18, 35]: 80% | pest or weed control at 80 g/ha [19, 36]: 100%

CCNC(=O)c1c(C(F)(F)F)ccc(C(=O)Nc2nnnn2C)c1CC [Example 1-272]
pest or weed control at 80 g/ha ([20]; Avena fatua, 504 h, 80 g/ha, pre-emergence): 90% | pest or weed control at 20 g/ha [1]: 100% | pest or weed control at 20 g/ha ([21]; Ipomoea purpurea, 504 h, dosage 20 g/ha): 90% | pest or weed control at 20 g/ha [2, 23]: 90% | pest or weed control at 20 g/ha [3]: 80% | pest or weed control at 80 g/ha [4]: 80% | pest or weed control at 20 g/ha [6, 24]: 90% | pest or weed control at 5 g/ha ([7]; dosage 5 g/ha): 80% | pest or weed control at 20 g/ha ([7]; dosage 20 g/ha): 90% | pest or weed control at 20 g/ha ([8]; dosage 20 g/ha): 90% | pest or weed control at 80 g/ha ([8]; dosage 80 g/ha): 100% | pest or weed control at 80 g/ha [9, 25]: 100% | pest or weed control at 20 g/ha ([10]; Setaria viridis, 504 h, dosage 20 g/ha): 80% | pest or weed control at 80 g/ha [10, 26]: 100% | pest or weed control at 20 g/ha ([11]; Viola tricolor, 504 h, dosage 20 g/ha): 90% | pest or weed control at 80 g/ha [11, 27]: 100% | pest or weed control at 80 g/ha [12, 28]: 100% | pest or weed control at 20 g/ha [12, 29]: 90% | pest or weed control at 20 g/ha [13]: 90% | pest or weed control at 20 g/ha [14, 30]: 100% | pest or weed control at 80 g/ha [14, 31]: 100% | pest or weed control at 80 g/ha [15, 32]: 90% | pest or weed control at 80 g/ha ([16]; dosage 80 g/ha): 80% | pest or weed control at 5 g/ha ([17]; Echinochloa crus-galli, 504 h, dosage 5 g/ha): 80% | pest or weed control at 20 g/ha [17, 33]: 90% | pest or weed control at 5 g/ha ([22]; dosage 5 g/ha): 90% | pest or weed control at 20 g/ha ([22]; dosage 20 g/ha): 90% | pest or weed control at 80 g/ha [18, 34]: 100% | pest or weed control at 20 g/ha [18, 35]: 90% | pest or weed control at 20 g/ha ([19]; Fallopia convolvulus, 504 h, dosage 20 g/ha): 80% | pest or weed control at 80 g/ha [19, 36]: 90%

CCn1nnnc1NC(=O)c1ccc(C(F)(F)F)c(C(=O)NC2CCC2)c1C [Example 2-42]
Pre-emergence action against AVEFA [20, 37]: 80% | Pre-emergence action against AVEFA in % ([20]; 80 g/ha, pre-emergence): 90% | Post-emergence action at 20 g/ha against AMARE in % [1]: 100% | Post-emergence action against PHBPU in % ([21]; dosage 5 g/ha): 90% | Post-emergence action against PHBPU in % ([21]; dosage 20 g/ha): 90% | Post-emergence action against ALOMY in % ([2]; dosage 5 g/ha): 90% | Post-emergence action against ALOMY in % ([2]; dosage 20 g/ha): 100% | Post-emergence action against VERPE in % [3]: 90% | Pre-emergence action against LOLRI in % [4]: 80% | Pre-emergence action against DIGSA in % ([5]; dosage 20 g/ha): 100% | Pre-emergence action against DIGSA in % ([5]; dosage 80 g/ha): 100% | Post-emergence action against MATIN in % ([6]; dosage 20 g/ha): 80% | Post-emergence action against ABUTH in % ([7]; dosage 5 g/ha): 80% | Post-emergence action against ABUTH in % ([7]; dosage 20 g/ha): 90% | Pre-emergence action against MATIN in % ([8]; dosage 20 g/ha): 100% | Pre-emergence action against MATIN in % ([8]; dosage 80 g/ha): 100% | Pre-emergence action against ECHCG in % ([9]; 20 g/ha): 90% | Pre-emergence action against ECHCG in % ([9]; 80 g/ha): 100% | Pre-emergence action against SETVI in % ([10]; dosage 20 g/ha): 80% | Pre-emergence action against SETVI in % ([10]; dosage 80 g/ha): 100% | Pre-emergence action against VIOTR in % ([11]; dosage 20 g/ha): 100% | Pre-emergence action against VIOTR in % ([11]; dosage 80 g/ha): 100% | Pre-emergence action against ABUTH (herbicidal activity) [12, 28]: 100% | Pre-emergence action against ABUTH (herbicidal activity in percent) [12, 29]: 100% | Pre-emergence action against AMARE in % [14, 30]: 100% | Pre-emergence action against AMARE in % [14, 28]: 100% | Pre-emergence action against VERPE in % ([15]; dosage 80 g/ha): 90% | Pre-emergence action against PHBPU in % ([16]; dosage 20 g/ha): 80% | Pre-emergence action against PHBPU in % ([16]; dosage 80 g/ha): 90% | Post-emergence action against ECHCG in % ([17]; dosage 5 g/ha): 90% | Post-emergence action against ECHCG in % ([17]; dosage 20 g/ha): 100% | Pre-emergence action against ALOMY [18, 37]: 80% | Pre-emergence action against ALOMY (herbicidal activity) [18, 34]: 90% | Pre-emergence action against POLCO in % ([19]; dosage 80 g/ha): 80%
